# System: p21 induction in HCT 116 cells
# Assay: p21 induction in cells (In-Cell Western, p21/GAPDH ratio)
# Assay type: cell-based
# Conditions: Homo sapiens, 24 h compound incubation, read-out: p21_EC50
# Experimental: The colon carcinoma cell line HCT 116 was obtained from ATCC and cultured in growth medium consisting of Mccoy's 5A Medium (Gibco 16600108) supplemented with 10% FBS (Transgene FS201-02) and 100 units/mL penicillin-streptomycin (Gibco 15140122) and maintained at 37° C. under 5% CO2. On the day of seeding, 2,000 cells in 30 μL of culture media were plated per well to Poly-D-Lysine 384 Well Black Clear Plates (Biocoat 356663) and incubated overnight at 37° C. under 5% CO2. The following day, compounds were serially diluted in DMSO for a total of 11 test concentrations. The typical starting concentration of compounds was 10 μM with 2-fold dilutions. Next, 150 nL of diluted compound was added in duplicate to the assay plate, using an Echo 655 (Labcyte). The plate was centrifuged at 500 RPM for 1 min and then incubated at 37° C. under 5% CO2 for 24 h. After 24 h, medium was removed, and cells were fixed by adding 40 μL of 4% paraformaldehyde solution to each well and incubated for 20 min at room temperature. The plate was then washed 4 times with 100 μL per well of wash buffer (PBS with 0.1% Tween-20) using a microplate washer. Next, 30 μL of ice-cold methanol was added to each well and the plate was incubated at −20° C. for 10 min. The plate was washed 4 times with 100 μL per well of wash buffer by a microplate washer, then 30 μL per well of blocking buffer ((Intercept PBS blocking buffer (LI-COR 927-70001) with 0.05% Tween-20)) was added and the plate was incubated at room temperature with shaking for 2 h. Next, to each test well, 20 μL of primary antibody solution (p21 Wafl/CIP (12D1) RabbitmAb (Cell Signaling Technologies 2947) diluted 1:1000 and GAPDH (D4C6R) Mouse mAb (Cell Signaling Technologies 97166) diluted 1:2000 in blocking buffer) was added and the plate was placed at 4° C., overnight. The following day, the plate was washed 5 times with 100 μL per well of wash buffer using a microplate washer for 5 min. 20 μL per well of secondary antibody (IRDye 680CW Goat anti-Mouse IgG (H+L) (LI-COR 926-68070) diluted 1:2000 in Blocking Buffer and IRDye 800CW Goat anti-Rabbit IgG (H+L) (LI-COR 926-32211) diluted 1:2000 in Blocking Buffer) was then added and the plate was stored for 2 h in the dark at room temperature with shaking. The plate was then washed 4 times with 100 μL per well of wash buffer again using a microplate washer. Finally, the p21 signal and the GAPDH signal were quantified using a LI-COR Odyssey CLx Imager machine reading at 800 nm and 700 nm, respectively. Each plate contained DMSO control (low control) and an internal reference WRN inhibitor (high control) respectively. For quantitation, the 800 nm/700 nm ratio was calculated for each well to give fold p21 induction and then percent activation for each compound well was calculated as follows (100×(ratio cpd well-ratio low control)/(ratio high control−ratio low control). EC50 values for each compound was generated after non-linear regression curve fitting using commercially available software.
row,EC50,SMILES
1,≤ 500 nM,"CCc1c(N2CCN(C(=O)c3c(O)c(F)cc4ncoc34)[C@H]3CC[C@@H]32)c(=O)c2nn(C3=CCOCC3)nc2n1CC(=O)NC12CC(C3CC3)(C1)C2 [Compound I-194, N-{3-cyclopropylbicyclo[1.1.1]pentan-1-yl}-2-[2-(3,6-dihydro-2H-pyran-4-yl)-5-ethyl-6-[(1S,6S)-5-(5-fluoro-6-hydroxy-1,3-benzoxazole-7-carbonyl)-2,5-diazabicyclo[4.2.0]octan-2-yl]-7-oxo-2H,4H,7H-[1,2,3]triazolo[4,5-b]pyridin-4-yl]acetamide]"
2,≤ 500 nM,"CCc1c(N2CCN(C(=O)c3ncnc(C)c3O)[C@H]3CC[C@@H]32)c(=O)c2nn(C3=CCOCC3)nc2n1CC(=O)NC12CC(C(C)(C)C)(C1)C2 [Compound I-196, N-{3-tert-butylbicyclo[1.1.1]pentan-1-yl}-2-[2-(3,6-dihydro-2H-pyran-4-yl)-5-ethyl-6-[(1S,6S)-5-(5-hydroxy-6-methylpyrimidine-4-carbonyl)-2,5-diazabicyclo[4.2.0]octan-2-yl]-7-oxo-2H,4H,7H-[1,2,3]triazolo[4,5-b]pyridin-4-yl]acetamide]"
3,≤ 500 nM,"CCc1c(N2CCN(C(=O)c3ncnc(C)c3O)[C@H]3CC[C@@H]32)c(=O)c2nn(C3=CCOCC3)nc2n1CC(=O)NC1CC2(CCC2)C1 [Compound I-197, 2-[2-(3,6-dihydro-2H-pyran-4-yl)-5-ethyl-6-[(1S,6S)-5-(5-hydroxy-6-methylpyrimidine-4-carbonyl)-2,5-diazabicyclo[4.2.0]octan-2-yl]-7-oxo-2H,4H,7H-[1,2,3]triazolo[4,5-b]pyridin-4-yl]-N-{spiro[3.3]heptan-2-yl}acetamide]"
4,500 to 2000 nM,"CCc1c(N2CCN(C(=O)c3c(COC)cccc3OC)[C@H]3CC[C@@H]32)c(=O)c2nn(C3=CCOCC3)nc2n1CC(=O)NC12CC(C3CC3)(C1)C2 [Compound I-212, N-{3-cyclopropylbicyclo[1.1.1]pentan-1-yl}-2-[2-(3,6-dihydro-2H-pyran-4-yl)-5-ethyl-6-[(1S,6S)-5-[2-methoxy-6-(methoxymethyl)benzoyl]-2,5-diazabicyclo[4.2.0]octan-2-yl]-7-oxo-2H,4H,7H-[1,2,3]triazolo[4,5-b]pyridin-4-yl]acetamide]"

# Source: US20250129069A1, “TRIAZOLO WRN INHIBITORS” (Nimbus Wadjet, Inc., priority 2023, published 2025)
